Experimental data published in paper PMC7249037, “Phenylpyrazalopyrimidines as Tyrosine Kinase Inhibitors: Synthesis, Antiproliferative Activity, and Molecular Simulations” (Molecules, 2020).
pIC50: −log10 of the molar value. “And” between values parts separate entries of the source, which are not always exact repeats. Identical values can stand only once.

Key:
HT-29 cells = test: Cell proliferation assay (CellTiter 96); format: cell-based, human; settings: for reducing the cell proliferation (in words): 24–96 h
Procedure: (§1) Human leukemia cell line CCRF-CEM (ATCC no. CCL-119), human ovarian adenocarcinoma cell line SK-OV-3 (ATCC no. HTB-77), human breast carcinoma cell line MDA-MB-231 (ATCC no.HTB-26), and human colon adenocarcinoma cell line HT-29 (ATCC no. HTB-38) were obtained from American Type Culture Collection. Cells were grown on 75 cm^2 cell culture flasks with […] (for leukemia cells) and EMEM (Eagle’s minimum essential medium) (for SK-OV-3, HT-29, MDA-MB-231 cells), supplemented with 10% fetal bovine serum (FBS), and 1% penicillin-streptomycin solution (10,000 units of penicillin and 10 mg of streptomycin in 0.9% NaCl) in a humidified atmosphere of 5% CO2, 95% air at 37 °C.
(§2) The cell proliferation assay was carried out using a CellTiter 96 aqueous one-solution cell proliferation assay kit (Promega, Madison, WI, USA). Briefly, upon reaching about 75–80% confluence, 5000 cells/well were plated in 96-well microplate in 100 μL of the medium. After seeding for 24 h, the cells were treated with 50 µM compound in triplicate. Doxorubicin (10 µM) was used as a positive control. At the end of the sample exposure period (72 h), 20 µL of CellTiter 96 aqueous solution was added. The plate was returned to the incubator for 1 h in a humidified atmosphere at 37 °C. The absorbance of the formazan product was measured at 490 nm using a microplate reader. The blank control was recorded by measuring the absorbance at 490 nm with wells containing medium mixed with CellTiter 96 aqueous solution but no cells. The percentage of cell survival was calculated as the OD value of cells treated with test compound − OD value of culture medium/(OD value of control cells − OD value of culture medium) × 100%. The same strategy was used for generating a dose-response graph for compound 10.

SK-OV-3 cells = test: Cell proliferation assay (CellTiter 96); format: cell-based, human; settings: for reducing the cell proliferation (in words): 24–96 h; for pIC50: SK-OV-3 cells, 72 h incubation
Procedure: as §1, §2

CCRF-CEM cells = test: Cell proliferation assay (CellTiter 96); format: cell-based, human; settings: for reducing the cell proliferation (in words): 24–96 h
Procedure: as §1
as §2, with “At the end of the sample exposure period (72 h), 20 µL of CellTiter 96 aqueous solution was added.” left out

MDA-MB-231 cells = test: Cell proliferation assay (CellTiter 96); format: cell-based, human; settings: for reducing the cell proliferation (in words): 24–96 h
Procedure: as §1
as §2, with “At the end of the sample exposure period (72 h), 20 µL of CellTiter 96 aqueous solution was added.” left out

c-Src [1] = target: T1, c-Src (Homo sapiens, UniProt P12931); test: c-Src kinase activity assay (Transcreener ADP fluorescence intensity); format: biochemical; parameters: 0.7 nM of His6-Src kinase domain in kinase buffer; His6; settings: in vitro Src kinase inhibition, His6-Src kinase domain, triplicate
Procedure: In summary, the kinase reaction was started in the 384-well low volume black microplate with the incubation of 2.5 μL of the reaction cocktail (0.7 nM of His6-Src kinase domain in kinase buffer) with 2.5 μL of prediluted compounds (dissolved in 10% DMSO, 4× target concentration) for 10 min at room temperature using microplate shaker. The reaction cocktail was made using the kinase buffer HEPES (200 mM, pH 7.5), MgCl2 (16 mM), EGTA (8 mM), DMSO (4%), Brij-35 (0.04%), and 2-mercaptoethanol (43 mM). The kinase reaction was started by adding 5 μL of ATP/substrate (40 μM/600 μM) cocktail and incubated for 30 min at room temperature on a microplate shaker. Src optimal peptide ([…]) was used as the substrate for the kinase reaction. The kinase reaction was stopped by adding 10 μL of the 1× ADP Detection Mixture to the enzyme reaction mixture and mixed using a plate shaker. The mixture was incubated at room temperature for 1 h, and the fluorescence intensity was measured. The 1× ADP Detection Mixture was prepared by adding ADP^2 Antibody-IRDyeR QC-1 (10 μg/mL) and ADP Alexa594 Tracer (8 nM) to Stop and Detect Buffer B(1×). The fluorescence Intensity measurements were performed using a fluorescence intensity optical module using the excitation of 580 nm and emission of 630 nm with bandwidths of 10 nm by Optima, BMG Labtech microplate reader (BMG Labtech, Ortenberg, Germany). The IC50 values of the compounds were calculated using ORIGIN 6.0 (Origin Lab, Microcal Software, Inc. Northhampton, MA, USA) software. […] All the experiments were carried out in triplicate.
Target sequence in this assay (P12931 270-523 limits assumed): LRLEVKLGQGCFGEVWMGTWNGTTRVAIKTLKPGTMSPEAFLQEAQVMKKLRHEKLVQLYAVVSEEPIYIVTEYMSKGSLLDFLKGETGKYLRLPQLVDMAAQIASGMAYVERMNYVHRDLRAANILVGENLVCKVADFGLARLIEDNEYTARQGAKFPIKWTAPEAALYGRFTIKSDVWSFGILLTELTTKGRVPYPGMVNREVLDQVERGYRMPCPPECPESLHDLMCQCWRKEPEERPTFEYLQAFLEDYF

Btk = target: T2, Btk (Homo sapiens, UniProt Q06187); test: Kinase panel, radiometric filter-binding (Reaction Biology); format: biochemical; settings: 200 µM ATP, values above 1 µM estimated from curve fit
T2 construct: purchased Invitrogen (assay run by Reaction Biology Corporation) PV3363
T2 sequence (Q06187 whole entry): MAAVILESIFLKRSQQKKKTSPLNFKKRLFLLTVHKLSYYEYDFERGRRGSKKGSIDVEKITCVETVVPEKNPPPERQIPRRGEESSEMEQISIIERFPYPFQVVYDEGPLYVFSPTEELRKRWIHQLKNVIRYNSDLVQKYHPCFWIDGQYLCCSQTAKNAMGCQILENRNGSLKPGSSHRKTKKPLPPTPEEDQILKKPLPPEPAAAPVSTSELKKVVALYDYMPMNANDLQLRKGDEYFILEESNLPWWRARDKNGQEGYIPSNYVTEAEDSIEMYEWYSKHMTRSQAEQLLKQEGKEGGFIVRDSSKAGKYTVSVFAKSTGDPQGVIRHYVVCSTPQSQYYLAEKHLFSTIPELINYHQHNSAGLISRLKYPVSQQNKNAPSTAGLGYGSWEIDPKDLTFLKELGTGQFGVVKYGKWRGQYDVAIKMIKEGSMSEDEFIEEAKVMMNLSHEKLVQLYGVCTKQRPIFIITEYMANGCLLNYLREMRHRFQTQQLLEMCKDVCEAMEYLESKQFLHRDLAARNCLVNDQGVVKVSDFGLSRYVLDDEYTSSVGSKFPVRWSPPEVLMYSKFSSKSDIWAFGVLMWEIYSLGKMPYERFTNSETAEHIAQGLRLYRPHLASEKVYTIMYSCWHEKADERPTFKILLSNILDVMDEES

Lck = target: T3, Lck (Homo sapiens, UniProt P06239); test: as above; format: biochemical; settings: 200 µM ATP, values above 1 µM estimated from curve fit
T3 construct: purchased Invitrogen (assay run by Reaction Biology Corporation) P3043
T3 sequence (P06239 whole entry): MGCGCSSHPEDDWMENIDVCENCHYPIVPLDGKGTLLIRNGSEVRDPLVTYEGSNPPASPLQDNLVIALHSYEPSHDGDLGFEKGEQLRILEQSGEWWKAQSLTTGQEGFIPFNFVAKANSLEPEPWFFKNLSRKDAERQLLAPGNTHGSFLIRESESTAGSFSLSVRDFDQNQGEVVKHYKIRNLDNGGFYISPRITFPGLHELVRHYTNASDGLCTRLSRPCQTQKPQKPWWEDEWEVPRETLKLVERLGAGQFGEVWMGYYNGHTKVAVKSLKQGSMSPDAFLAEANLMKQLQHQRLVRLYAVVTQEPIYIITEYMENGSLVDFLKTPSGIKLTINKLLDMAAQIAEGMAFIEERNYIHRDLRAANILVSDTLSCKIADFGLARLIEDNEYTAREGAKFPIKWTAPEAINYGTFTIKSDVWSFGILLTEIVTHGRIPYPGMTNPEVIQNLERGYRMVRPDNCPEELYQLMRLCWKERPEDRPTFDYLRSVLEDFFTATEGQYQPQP

c-Src [2] = target: T1, c-Src; test: as above; format: biochemical; parameters: purchased Invitrogen (assay run by Reaction Biology Corporation) P3044; settings: 200 µM ATP, values above 1 µM estimated from curve fit
Target sequence in this assay (P12931 whole entry, the tested form may be a part): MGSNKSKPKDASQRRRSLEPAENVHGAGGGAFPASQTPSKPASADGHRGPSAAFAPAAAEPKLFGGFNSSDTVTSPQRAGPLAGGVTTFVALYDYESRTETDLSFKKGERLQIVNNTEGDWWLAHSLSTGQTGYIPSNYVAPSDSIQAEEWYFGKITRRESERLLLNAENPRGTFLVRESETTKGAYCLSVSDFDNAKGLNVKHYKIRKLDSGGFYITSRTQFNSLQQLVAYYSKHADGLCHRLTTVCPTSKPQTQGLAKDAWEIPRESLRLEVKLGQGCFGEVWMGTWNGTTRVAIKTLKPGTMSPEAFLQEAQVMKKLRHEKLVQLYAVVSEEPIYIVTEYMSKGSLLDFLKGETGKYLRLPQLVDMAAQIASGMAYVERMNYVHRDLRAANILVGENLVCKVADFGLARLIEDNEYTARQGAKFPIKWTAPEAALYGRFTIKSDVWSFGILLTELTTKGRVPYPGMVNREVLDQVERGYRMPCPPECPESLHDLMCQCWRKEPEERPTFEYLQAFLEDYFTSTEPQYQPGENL

Akt1 = target: T4, Akt1 (Homo sapiens, UniProt P31749); test: as above; format: biochemical; settings: 200 µM ATP, NA = not active, values above 1 µM estimated from curve fit
T4 construct: purchased Invitrogen (assay run by Reaction Biology Corporation) PR3878D
T4 sequence (P31749 whole entry): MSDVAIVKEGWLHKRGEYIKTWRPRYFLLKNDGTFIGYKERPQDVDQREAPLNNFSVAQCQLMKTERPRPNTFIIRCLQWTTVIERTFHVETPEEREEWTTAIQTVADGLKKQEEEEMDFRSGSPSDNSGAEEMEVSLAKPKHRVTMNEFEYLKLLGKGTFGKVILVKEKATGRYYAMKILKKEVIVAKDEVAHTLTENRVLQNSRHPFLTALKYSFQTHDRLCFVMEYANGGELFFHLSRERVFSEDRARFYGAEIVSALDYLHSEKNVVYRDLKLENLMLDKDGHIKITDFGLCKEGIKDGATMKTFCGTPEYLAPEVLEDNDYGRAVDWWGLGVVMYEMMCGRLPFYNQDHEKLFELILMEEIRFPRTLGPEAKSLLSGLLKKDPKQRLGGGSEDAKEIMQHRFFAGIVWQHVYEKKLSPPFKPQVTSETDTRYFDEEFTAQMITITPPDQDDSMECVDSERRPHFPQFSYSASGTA
Procedure: Required cofactors were added individually to each kinase reaction. […] The serial dilution was conducted by Integra Viaflo Assist in DMSO.

Row | Compound | pIC50 (c-Src [1]) | reducing the cell proliferation (in words) (HT-29 cells; HT-29, 50 µM) | reducing the cell proliferation (in words) (SK-OV-3 cells; SK-OV-3, 50 µM) | reducing the cell proliferation (in words) (CCRF-CEM cells; 50 µM) | reducing the cell proliferation (in words) (MDA-MB-231 cells; MDA-MB-231, 50 µM) | further results
1 | CC(=O)Cn1nc(-c2ccccc2)c2c(N)ncnc21 [Compound 2, 1-(4-Amino-3-phenyl-1H-pyrazolo[3,4-d]pyrimidin-1-yl)propan-2-one] | – | inactive | inactive | inactive | inactive | –
2 | CC(=O)C(=Cc1ccc(C)cc1)n1nc(-c2ccccc2)c2c(N)ncnc21 [Compound 3, 3-(4-Amino-3-phenyl-1H-pyrazolo[3,4-d]pyrimidin-1-yl)-4-p-tolylbut-3-en-2-one] | 4.48 | – | – | – | – | –
3 | CC(=O)C(=Cc1cccc(C)c1)n1nc(-c2ccccc2)c2c(N)ncnc21 [Compound 4, 3-(4-Amino-3-phenyl-1H-pyrazolo[3,4-d]pyrimidin-1-yl)-4-m-tolylbut-3-en-2-one] | 4.61 | – | – | – | – | –
4 | CC(=O)/C(=C\c1ccc(-c2ccccc2)cc1)n1nc(-c2ccccc2)c2c(N)ncnc21 [Compound 5, 3-(4-Amino-3-phenyl-1H-pyrazolo[3,4-d]pyrimidin-1-yl)-4-p-biphenylbut-3-en-2-one] | 3.72 | – | – | – | – | –
5 | CC(=O)C(=Cc1cccc([N+](=O)[O-])c1)n1nc(-c2ccccc2)c2c(N)ncnc21 [Compound 9, 3-(4-Amino-3-phenyl-1H-pyrazolo[3,4-d]pyrimidin-1-yl)-4-(3-nitrophenyl)but-3-en-2-one] | – | inactive | inactive | inactive | inactive | –
6 | CC(=O)C(=Cc1ccc(Cl)cc1)n1nc(-c2ccccc2)c2c(N)ncnc21 [Compound 10, 3-(4-Amino-3-phenyl-1H-pyrazolo[3,4-d]pyrimidin-1-yl)-4-(4-chlorophenyl)but-3-en-2-one] | – | – | – | – | – | pIC50 (Btk): 4.04 and 4.02; pIC50 (Lck): 3.96; pIC50 (c-Src [2]): 4.22 and 4.19; inhibition at 50 µM (HT-29 cells; Homo sapiens, HT-29, 50 µM, 96 h): 90%; inhibition at 50 µM (SK-OV-3 cells; Homo sapiens, SK-OV-3, 50 µM, 96 h): 79%; pIC50 (SK-OV-3 cells; Homo sapiens): 4.59; pIC50 (Akt1): < 3.82; inhibition at 50 µM (CCRF-CEM cells; Homo sapiens, 50 µM, 96 h): 79%; inhibition at 50 µM (MDA-MB-231 cells; Homo sapiens, MDA-MB-231, 50 µM, 96 h): 60%
7 | CC(=O)C(=Cc1ccc(Cl)cc1Cl)n1nc(-c2ccccc2)c2c(N)ncnc21 [Compound 11, 3-(4-Amino-3-phenyl-1H-pyrazolo[3,4-d]pyrimidin-1-yl)-4-(2,4-dichlorophenyl)but-3-en-2-one] | – | – | – | – | – | pIC50 (SK-OV-3 cells; Homo sapiens): 4.46
8 | CC(=O)C(=Cc1ccccc1Cl)n1nc(-c2ccccc2)c2c(N)ncnc21 [Compound 12, 3-(4-Amino-3-phenyl-1H-pyrazolo[3,4-d]pyrimidin-1-yl)-4-(2-chlorophenyl)but-3-en-2-one] | – | inactive | inactive | inactive | inactive | –
9 | COc1cccc2c1C(=O)c1c(O)c3c(c(O)c1C2=O)C[C@@](O)(C(=O)CO)C[C@@H]3O[C@H]1C[C@H](N)[C@H](O)[C@H](C)O1 [Dox, Doxorubicin, reference compound] | – | – | – | – | – | inhibition at 1 µM (HT-29 cells; Homo sapiens, HT-29, Dox positive control (1 µM in Figure 3, 10 µM in method), 96 h): 75%; inhibition at 1 µM (SK-OV-3 cells; Homo sapiens, SK-OV-3, Dox positive control (1 µM in Figure 3, 10 µM in method), 96 h): 73%; inhibition at 1 µM (CCRF-CEM cells; Homo sapiens, Dox positive control (1 µM in Figure 3, 10 µM in method), 96 h): 73%; inhibition at 1 µM (MDA-MB-231 cells; Homo sapiens, MDA-MB-231, Dox positive control (1 µM in Figure 3, 10 µM in method), 96 h): 64%

The next lines start with results.

Row | pIC50 (c-Src [1]) | Compound | reducing the cell proliferation (in words) (HT-29 cells; HT-29, 50 µM) | reducing the cell proliferation (in words) (SK-OV-3 cells; SK-OV-3, 50 µM) | reducing the cell proliferation (in words) (CCRF-CEM cells; 50 µM) | reducing the cell proliferation (in words) (MDA-MB-231 cells; MDA-MB-231, 50 µM) | further results
10 | 4.66 | COc1ccc(C=C(C(C)=O)n2nc(-c3ccccc3)c3c(N)ncnc32)cc1 [Compound 6, 3-(4-Amino-3-phenyl-1H-pyrazolo[3,4-d]pyrimidin-1-yl)-4-(4-methoxyphenyl)but-3-en-2-one] | – | – | – | – | –
11 | 4.43 | CC(=O)C(=Cc1ccc(N(C)C)cc1)n1nc(-c2ccccc2)c2c(N)ncnc21 [Compound 7, 3-(4-Amino-3-phenyl-1H-pyrazolo[3,4-d]pyrimidin-1-yl)-4-(4-(dimethylamino)phenyl)but-3-en-2-one] | inactive | inactive | inactive | inactive | –
